From patent US20260242340A1, “COMPOUNDS AND METHODS FOR TREATING PROTEIN AGGREGATION DISEASES” (ACELOT, INC., priority 2023, published 2026)

Key:
[1] = biological target: T1, Aβ 1-42 (Homo sapiens, UniProt P05067); test: Aβ42 thioflavin T assay; format: biochemical; conditions: 50 μM compound, 5 μM Aβ 1-42, ThT RFU at 15 hours; 100% = Aβ + DMSO; read-out: Aβ42 % aggregation at 50 μM
T1 construct: The monomeric form of Aβ 1-42 (rPeptide, A1170-025) film; purchased rPeptide A1170-025
Method: The effect of compounds on fibril formation by Aβ 1-42 was screened using a thioflavin T (ThT) fluorescence assay in a 96-well plate format. The monomeric form of Aβ 1-42 (rPeptide, A1170-025) film was diluted with 10 mM NaOH to form a 1 mg/ml stock solution. This stock solution was then further diluted with cell culture grade water (Cytiva, SH30529.01) and 10×PBS (VWR, 97063-660) to a working concentration of 100 μM in 1×PBS on ice. Compounds were initially dissolved in 100% DMSO (MilliporeSigma, D2650) at room temperature to make a 10 mM stock and stored at −20° C. prior to the experiment. On the day of the experiment, the stock solution was diluted with 1×PBS to a concentration of 500 μM, containing 5% DMSO. The reaction mixture, containing 10 μM ThT […], 5 μM Aβ 1-42, and 1×PBS was prepared in 15 ml Falcon centrifuge tubes (Corning, 352070) and kept on ice during preparation. The reaction mixture was then dispensed into multiple wells of a 96-well half-area, low-binding polyethylene non-treated plate (Corning, 3880) with a clear bottom, at 90 μL per well. To each well, 10 μL of 500 μM compound stock was added, with three replicates per compound. To account for the presence of DMSO, 5% DMSO in 1×PBS was used as the vehicle control. The positive control consisted of 10 μM ThT, 5 μM Aβ 1-42, and 0.5% DMSO in 1×PBS, while the negative control consisted of 10 μM ThT and 0.5% DMSO in 1×PBS. The plates were sealed with polyester sealing tape (VWR, 89134-430) to prevent evaporation and then placed in a plate reader (Molecular Devices SpectraMax ID5) at 37° C. without agitation. ThT fluorescence was measured through the bottom of the plate using 440- and 480-nm excitation and emission filters for 15 hours at 0.5-hour intervals. Each well was scanned at 5 points with a 1.25 mm distance between points. The relative fluorescence unit (RFU) at 15 hours was used to rank the percent of aggregation for all tested compounds and controls.

[2] = biological target: T2, TDP-43 cytosolic aggregates (TDP-43-tGFP-U2OS cell line) (Homo sapiens, UniProt Q13148); test: TDP-43 cytoplasmic aggregation assay; format: cell-based; conditions: 10 μM compound; TDP-43-tGFP-U2OS cells, sodium arsenite; lower = more potent
T2 construct: expressed in transfected cells; host or cells: U2OS (recombinant, IPTG-inducible TDP-43 expression)
T2 sequence (Q13148 whole entry): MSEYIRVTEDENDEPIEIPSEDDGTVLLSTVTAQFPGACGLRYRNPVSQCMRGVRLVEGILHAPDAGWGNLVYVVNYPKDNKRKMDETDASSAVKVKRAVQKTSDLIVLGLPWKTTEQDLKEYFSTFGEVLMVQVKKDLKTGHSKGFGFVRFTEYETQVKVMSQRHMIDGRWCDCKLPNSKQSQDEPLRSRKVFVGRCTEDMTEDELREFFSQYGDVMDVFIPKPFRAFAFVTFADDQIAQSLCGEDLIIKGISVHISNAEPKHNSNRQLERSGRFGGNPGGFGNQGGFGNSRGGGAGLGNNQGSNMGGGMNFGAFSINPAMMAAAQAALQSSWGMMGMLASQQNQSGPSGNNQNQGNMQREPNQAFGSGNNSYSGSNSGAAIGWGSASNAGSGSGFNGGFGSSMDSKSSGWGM
Method: Recombinant TDP-43-tGFP-U2OS cell line was thawed (2×10^6 cells per T75) and was maintained in DMEM-F12 supplemented with 10% FBS at 37° C. in a humidified 5% CO2 atmosphere. Cells were plated in 96-well plates with a density of 10,000 cells (+/−2000 cells) per well. Cells were incubated with the test compounds and isopropyl β-D-1-thiogalactopyranoside (IPTG) 1 mM to induce TDP43 expression for 24 hours. The assays were carried out in triplicate. Cells were treated with 125-250 μM of sodium arsenite for 120 min and TDP-43 punctae formation was quantified in both cell cytoplasm and cell nucleus, in living cells. The nuclei were stained using Hoechst (0.5 μg/ml) and the fluorescence was measured using a Cell Insight High-Content Bioimager from Thermo Fisher. To detect the Hoechst, the filters used were 380/10 and 460/10 nm for excitation and emission, respectively, and to detect the TDP-43 punctae, the filters were 488/20 and 520/20 nm, respectively. The images were obtained with an objective of 20×. Cell quantification was performed delimitating the region of interest of the nuclei and after quantification the average of each triplicate was performed. For granule quantification the spot detector application from Cell Software delimitated 2 regions of interest, the nuclei and cytosol. This software quantified the average number of granules per nuclei and the average number of granules per cytosol in each well.

[3] = biological target: T3, amyloid beta peptide 42 (Aβ42) protein aggregates (Homo sapiens, UniProt P05067); test: Atomic force microscopy (AFM) of amyloid beta peptide protein aggregation; format: biochemical; conditions: pre-incubated 10 μM Aβ42, 1:1 compound:Aβ42 ratio, 60 minutes after compound addition
T3 construct: amyloid beta peptide 42 (Aβ42) protein aggregates
T3 sequence (P05067 672-713 limits assumed): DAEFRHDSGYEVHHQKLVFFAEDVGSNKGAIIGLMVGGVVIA
Method: Atomic force microscopy (AFM) was utilized to study the effect of compound 1 on the formation of larger scale amyloid beta peptide 42 (Aβ42) protein aggregates and to determine the effect on pre-formed aggregates and fibrils. Amyloid beta peptide 42 protein aggregates are a major component of the amyloid plaques found in the brains of people with Alzheimer's disease. A 50 μL aliquot of 10 μM Aβ42 solution in 10 mM ammonium acetate was removed and drop-cast onto a mica disc, dried at ambient conditions in a desiccator, and imaged. It took approximately 5 min to prepare the peptide and for the disc to dry, making it the earliest time Aβ42 aggregation can be observed. After 5 min incubation, large globular aggregates formed but few fibrils were observed (FIG. 1A). After 60 min, there was a clear trend toward higher fibril content and larger oligomers. Thus, FIG. 1A represents a control, showing Aβ42 aggregation without the addition of any compound causing Aβ42 aggregation disruption.
Compound 1 was added to the same solution of pre-incubated Aβ42 in a 1:1 compound:Aβ42 ratio. The AFM image shown in FIG. 1B was taken at 60 minutes after compound 1 addition.

T1 sequence (P05067 672-713 limits assumed): as above

Structure (SMILES) | activity at 50 µM [1] [%] | TDP-43 % cytosolic aggregates at 10 μM [2] [%] | Aβ42 protein aggregation (AFM image, FIG. 1B) [3]
CC(=O)Nc1ccc2c(c1)CCN(CCc1cccc(Cl)c1)C2 [Compound 1] | 60.9 | 34.5 | dramatic reduction
CC(=O)Nc1ccc2c(c1)CCN(CCc1ccc(F)c(Cl)c1)C2 [Compound 2] | 73.5 | 10.2 | 
